Measurements as given in patent US8853232B2, “Peripheral opioid receptor antagonists and uses thereof” (Progenics Pharmaceuticals, Inc., priority 2007, dated 2014).

Tests used:
human mu opioid receptor = human mu opioid receptor (Homo sapiens, UniProt P35372); assay: Radioligand competition binding at the human mu opioid receptor; conditions: for nH (Hill coefficient): human mu opioid receptor, competition curves
Procedure: Compounds of the invention were assayed for activity at the human mu opioid receptor by methods substantially similar to those described in Zhang, et al., (1998) “Dynorphin A as a potential endogenous ligand for four members of the opioid receptor gene family.” J. Pharmacol. Exp. Ther., 286: 136-141.
IC50 values (concentration causing a half-maximal inhibition of control specific binding) and Hill coefficients (nH) were determined by non-linear regression analysis of the competition curves using Hill equation curve fitting.
Inhibition constants (Ki) were calculated from the Cheng Prusoff equation: (Ki=IC50/(1+(L/KD)), where L=concentration of radioligand in the assay, and KD=affinity of the radioligand for the receptor).
Results are expressed as a percent of control specific binding obtained in the presence of compounds 6-alpha-methylnaltrexol, 6-beta-methylnaltrexol and 3-sulfo-methylnaltrexone.

[1] = molecular target: μ-opioid receptors in the guinea pig ileum (Cavia porcellus, UniProt A0ACM8Q262); assay: Functional activity: inhibition of DAMGO-induced decrease of twitch contraction amplitude in guinea pig ileum; assay type: cell-based; conditions: read-out: IC50 Value (concentration causing a half-maximal inhibition of DAMGO-induced decrease of twitch contraction amplitude)
Procedure: The IC50 values (concentration causing a half-maximal inhibition of DAMGO-induced decrease of twitch contraction amplitude) were determined by non-linear regression analysis of the dose-response curves.
Results are expressed as a concentration causing a half-maximal inhibition of DAMGO-induced decrease of twitch contraction amplitude of guinea-pig ileum in the presence of compounds 6-alpha-methylnaltrexol, 6-beta-methylnaltrexol and 3-sulfo-methylnaltrexone.

Sequence of human mu opioid receptor (P35372 whole entry): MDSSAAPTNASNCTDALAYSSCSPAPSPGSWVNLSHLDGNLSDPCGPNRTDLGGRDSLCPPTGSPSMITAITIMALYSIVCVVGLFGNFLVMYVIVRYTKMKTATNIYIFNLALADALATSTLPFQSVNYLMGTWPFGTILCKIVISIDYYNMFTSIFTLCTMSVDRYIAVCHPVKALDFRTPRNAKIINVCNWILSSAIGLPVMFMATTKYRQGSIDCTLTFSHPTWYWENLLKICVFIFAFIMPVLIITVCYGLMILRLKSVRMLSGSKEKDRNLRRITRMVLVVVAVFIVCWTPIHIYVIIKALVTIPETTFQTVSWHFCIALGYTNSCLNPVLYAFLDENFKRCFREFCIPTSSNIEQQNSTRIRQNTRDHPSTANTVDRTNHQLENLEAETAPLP
Sequence of μ-opioid receptors in the guinea pig ileum (A0ACM8Q262 1-400): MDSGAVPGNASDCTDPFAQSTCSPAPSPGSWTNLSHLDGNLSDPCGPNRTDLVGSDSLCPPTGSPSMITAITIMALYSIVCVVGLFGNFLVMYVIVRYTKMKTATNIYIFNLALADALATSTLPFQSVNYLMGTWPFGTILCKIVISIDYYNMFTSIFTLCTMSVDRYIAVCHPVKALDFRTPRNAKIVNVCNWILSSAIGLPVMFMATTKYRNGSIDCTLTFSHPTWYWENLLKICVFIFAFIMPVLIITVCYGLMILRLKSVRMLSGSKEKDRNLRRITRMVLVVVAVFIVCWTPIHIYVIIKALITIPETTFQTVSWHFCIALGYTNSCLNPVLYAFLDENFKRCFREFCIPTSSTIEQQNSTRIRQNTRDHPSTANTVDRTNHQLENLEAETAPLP

| SMILES | IC50 (human mu opioid receptor) [nM] | Ki (human mu opioid receptor) [nM] | nH (Hill coefficient) (human mu opioid receptor) | IC50 [1] [nM] |
| --- | --- | --- | --- | --- |
| C[N+]1(CC2CC2)CC[C@]23c4c5ccc(O)c4O[C@H]2[C@@H](O)CC[C@@]3(O)[C@H]1C5 (stereo partly drawn) [Compound I-1, (5α,6α)-17-cyclopropylmethyl-17-methyl-4,5-epoxy-3,6,14-trihydroxy-morphinan bromide] | 110 | 30 | 0.8 | 170 |
| C[N+]1(CC2CC2)CC[C@]23c4c5ccc(OS(=O)(=O)O)c4O[C@H]2C(=O)CC[C@@]3(O)[C@H]1C5 (stereo partly drawn) [Compound I-3, 3 sulfo-methylnaltrexone] | 8300 | 2200 | 0.8 | 10000 |
| C[N+]1(CC2CC2)CC[C@]23c4c5ccc(O)c4O[C@H]2[C@H](O)CC[C@@]3(O)[C@H]1C5 (stereo partly drawn) [Compound I-2, (5α,6β)-17-cyclopropylmethyl-17-methyl-4,5-epoxy-3,6,14-trihydroxy-morphinan bromide] | 230 | 60 | 0.9 | 140 |
